Measurements: patent publication US10947196B2, “Beta adrenergic agonist and methods of using the same” (CURASEN THERAPEUTICS, INC., priority 2019, dated 2021)

Test: Hepatocyte stability (rat)
Format: in vitro ADME
Settings: 0.5×10^6 viable cells/mL
Protocol: 10 mM and 100 μM stock solutions of test compound(s) and a positive control were prepared in appropriate solvent (DMSO). In separate conical tubes, the 10 mM test compound and the positive control were diluted to 100 μM by combining 198 μL of 50% acetonitrile/50% water and 2 μL of 10 mM stock. The 100 μM test compound and the positive control were diluted to 30 μM by combining 140 μL of 50% acetonitrile/50% water and 60 μL of 100 μM stock solution. The 100 μM test compound and the positive control were diluted to 10 μM by combining 180 μL of 50% acetonitrile/50% water and 20 μL of 100 μM stock solution. The 100 μM test compound and the positive control were diluted to 3 μM by combining 194 μL of 50% acetonitrile/50% water and 6 μL of 100 μM stock solution.
Incubation medium (William's E Medium supplemented with GlutaMAX) and hepatocyte thawing medium was placed in a 37° C. water bath, and allowed to warm for at least 15 minutes prior to use. A vial of cryopreserved hepatocytes from storage was then removed, ensuring that the vial remains at cryogenic temperatures until thawing process ensues. Cells were thawed by placing the vial in a 37° C. water bath and gently shaking the vial for 2 minutes. After thawing was completed, the vial was sprayed with 70% ethanol and transferred to a biosafety cabinet.
A wide-bore pipette tip was used to transfer hepatocytes into 50 mL conical tube containing thawing medium. The 50 mL conical tube was placed into a centrifuge and spun at 100 g for 10 minutes. Upon completion of spin, the thawing medium was aspirated and the hepatocytes were resuspended in enough incubation medium to yield ˜1.5×10^6 cells/mL.
Using AOPI staining solution, cells were counted and the viable cell density was determined. Cells with poor viability (<75% viability) are not acceptable for use. […]
All calculations were carried out using Microsoft Excel. Peak areas were determined from extracted ion chromatograms. […]
The in vitro half-life (in vitro t1/2) was determined from the slope value: in vitro t1/2=0.693/k

SMILES | Hepatocyte stability, Rat
CC(C)(C)NC[C@H](O)c1cccc(C#N)n1 [Compound 03-5, (S)-6-(2-(tert-butylamino)-1-hydroxyethyl)picolinonitrile] | 3.54-4.62 μL/min/10^6 cells
CC(C)(C)NC[C@H](O)c1cccc(C(F)(F)F)n1 [Compound 03-3] | 4.59 μL/min/10^6 cells
Cc1ncccc1[C@@H](O)CNC(C)(C)C [Compound 03-115] | 20.61 μL/min/10^6 cells
